Laboratory results taken from PubChem BioAssay (NCI).
Several values for one entry are separate records, joined by “and”; a condition that tells them apart may be missing. Identical values can stand only once.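 Dose response: 5 concentrations. Exposure: 48 h. Format: 96-well plates. Endpoint: linear interpolation; highest concentration if not reached. The concentration for 50% growth inhibition is given as GI50. Definition used: TGI = concentration required for complete inhibition of growth.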

Assays:
Assay in all cases: NCI-60 cell line screen, 48 h
786-0 renal = system: 786-0 renal
A498 renal = system: A498 renal
A549 NSCLC = system: A549 NSCLC
ACHN renal = system: ACHN renal
BT-549 breast = system: BT-549 breast
CAKI-1 renal = system: CAKI-1 renal
CCRF-CEM leukemia = system: CCRF-CEM leukemia
COLO 205 colon = system: COLO 205 colon
DU-145 prostate = system: DU-145 prostate
EKVX NSCLC = system: EKVX NSCLC
HCC-2998 colon = system: HCC-2998 colon
HCT-116 colon = system: HCT-116 colon
HCT-15 colon = system: HCT-15 colon
HL-60(TB) leukemia = system: HL-60(TB) leukemia
HOP-62 NSCLC = system: HOP-62 NSCLC
HOP-92 NSCLC = system: HOP-92 NSCLC
HS 578T breast = system: HS 578T breast
HT29 colon = system: HT29 colon
IGROV1 ovarian = system: IGROV1 ovarian
K-562 leukemia = system: K-562 leukemia
KM12 colon = system: KM12 colon
LOX IMVI melanoma = system: LOX IMVI melanoma
M14 melanoma = system: M14 melanoma
MALME-3M melanoma = system: MALME-3M melanoma
MCF7 breast = system: MCF7 breast
MDA-MB-231 breast = system: MDA-MB-231 breast
MDA-MB-435 = system: MDA-MB-435
MDA-N = system: MDA-N
MOLT-4 leukemia = system: MOLT-4 leukemia
NCI-H226 lung = system: NCI-H226 lung
NCI-H23 lung = system: NCI-H23 lung
NCI-H460 lung = system: NCI-H460 lung
NCI-H522 lung = system: NCI-H522 lung
NCI/ADR-RES ovarian = system: NCI/ADR-RES ovarian
OVCAR-3 ovarian = system: OVCAR-3 ovarian
OVCAR-4 ovarian = system: OVCAR-4 ovarian
OVCAR-5 ovarian = system: OVCAR-5 ovarian
OVCAR-8 ovarian = system: OVCAR-8 ovarian
PC-3 prostate = system: PC-3 prostate
RPMI-8226 leukemia = system: RPMI-8226 leukemia
RXF 393 renal = system: RXF 393 renal
SF-268 CNS = system: SF-268 CNS
SF-295 CNS = system: SF-295 CNS
SF-539 CNS = system: SF-539 CNS
SK-MEL-2 melanoma = system: SK-MEL-2 melanoma
SK-MEL-28 melanoma = system: SK-MEL-28 melanoma
SK-MEL-5 melanoma = system: SK-MEL-5 melanoma
SK-OV-3 ovarian = system: SK-OV-3 ovarian
SN12C renal = system: SN12C renal
SNB-19 CNS = system: SNB-19 CNS
SNB-75 CNS = system: SNB-75 CNS
SR leukemia = system: SR leukemia
SW-620 colon = system: SW-620 colon
T-47D breast = system: T-47D breast
TK-10 renal = system: TK-10 renal
U251 CNS = system: U251 CNS
UACC-257 melanoma = system: UACC-257 melanoma
UACC-62 melanoma = system: UACC-62 melanoma
UO-31 renal = system: UO-31 renal

SMILES: N=[N+]=NC1C(O)C(CO)OC1n1cnc2c(N)ncnc21 (stereo unspecified)
- TGI (786-0 renal): > 100 µM
- TGI (A498 renal): > 100 µM
- TGI (A549 NSCLC): > 100 µM
- TGI (ACHN renal): 52.6 µM
- TGI (BT-549 breast): > 100 µM
- TGI (CAKI-1 renal): > 100 µM
- TGI (CCRF-CEM leukemia): > 29.8 µM
- TGI (COLO 205 colon): > 100 µM
- TGI (DU-145 prostate): > 100 µM
- TGI (EKVX NSCLC): > 100 µM
- TGI (HCC-2998 colon): > 100 µM
- TGI (HCT-116 colon): > 100 µM
- TGI (HCT-15 colon): > 100 µM
- TGI (HL-60(TB) leukemia): 6.44 µM
- TGI (HOP-62 NSCLC): > 100 µM
- TGI (HOP-92 NSCLC): > 100 µM
- TGI (HS 578T breast): > 100 µM
- TGI (HT29 colon): > 100 µM
- TGI (IGROV1 ovarian): > 100 µM
- TGI (K-562 leukemia): > 100 µM
- TGI (KM12 colon): > 100 µM
- TGI (LOX IMVI melanoma): > 83.5 µM
- TGI (M14 melanoma): > 100 µM
- TGI (MALME-3M melanoma): > 100 µM
- TGI (MCF7 breast): > 100 µM
- TGI (MDA-MB-231 breast): > 100 µM
- TGI (MDA-MB-435): > 100 µM
- TGI (MDA-N): > 100 µM
- TGI (MOLT-4 leukemia): > 22.4 µM
- TGI (NCI-H226 lung): 97.4 µM
- TGI (NCI-H23 lung): > 80 µM
- TGI (NCI-H460 lung): > 100 µM
- TGI (NCI-H522 lung): > 100 µM
- TGI (NCI/ADR-RES ovarian): > 100 µM
- TGI (OVCAR-3 ovarian): > 100 µM
- TGI (OVCAR-4 ovarian): > 100 µM
- TGI (OVCAR-5 ovarian): > 100 µM
- TGI (OVCAR-8 ovarian): > 100 µM
- TGI (PC-3 prostate): > 100 µM
- TGI (RPMI-8226 leukemia): > 100 µM
- TGI (RXF 393 renal): > 100 µM
- TGI (SF-268 CNS): > 100 µM
- TGI (SF-295 CNS): > 100 µM
- TGI (SF-539 CNS): > 76.2 µM
- TGI (SK-MEL-2 melanoma): > 100 µM
- TGI (SK-MEL-28 melanoma): > 100 µM
- TGI (SK-MEL-5 melanoma): > 100 µM
- TGI (SK-OV-3 ovarian): > 100 µM
- TGI (SN12C renal): > 100 µM
- TGI (SNB-19 CNS): > 100 µM
- TGI (SNB-75 CNS): > 100 µM
- TGI (SR leukemia): 7 µM
- TGI (SW-620 colon): > 100 µM
- TGI (T-47D breast): > 100 µM
- TGI (TK-10 renal): > 100 µM
- TGI (U251 CNS): > 100 µM
- TGI (UACC-257 melanoma): > 100 µM
- TGI (UACC-62 melanoma): > 100 µM
- TGI (UO-31 renal): > 100 µM

SMILES: C[C@@]12C(=O)OC(=O)[C@]1(C)[C@H]1CC[C@@H]2O1
- GI50 (786-0 renal): 1.47 µM
- TGI (786-0 renal): 2.85 µM and 3.56 µM
- GI50 (A498 renal): 1.47 µM
- TGI (A498 renal): 2.84 µM and 2.69 µM
- GI50 (A549 NSCLC): 1.09 µM
- TGI (A549 NSCLC): 2.92 µM and 4.9 µM
- TGI (ACHN renal): 2.43 µM and 2.83 µM
- TGI (BT-549 breast): 3.06 µM and 3.29 µM
- TGI (CAKI-1 renal): 2.11 µM and 2.29 µM
- GI50 (CCRF-CEM leukemia): 1.59 µM
- TGI (CCRF-CEM leukemia): 10.8 µM and 7.85 µM
- TGI (COLO 205 colon): 1.69 µM and 1.01 µM
- GI50 (DU-145 prostate): 1.37 µM
- TGI (DU-145 prostate): 2.82 µM and 2.81 µM
- GI50 (EKVX NSCLC): 0.556 µM
- TGI (EKVX NSCLC): 1.76 µM and 1.9 µM
- GI50 (HCC-2998 colon): 1.03 µM
- TGI (HCC-2998 colon): 3 µM and 2.69 µM
- TGI (HCT-116 colon): 4.38 µM and 4.91 µM
- GI50 (HCT-15 colon): 2.03 µM
- TGI (HCT-15 colon): 4.7 µM and 13.8 µM
- GI50 (HL-60(TB) leukemia): 1.39 µM
- TGI (HL-60(TB) leukemia): 3.77 µM and 4.07 µM
- GI50 (HOP-62 NSCLC): 1.81 µM
- TGI (HOP-62 NSCLC): 3.34 µM and 5.73 µM
- GI50 (HOP-92 NSCLC): 0.846 µM
- TGI (HOP-92 NSCLC): 2.2 µM and 2.96 µM
- GI50 (HS 578T breast): 1.36 µM and 1.56 µM
- TGI (HS 578T breast): 3 µM and 3.29 µM
- TGI (HT29 colon): 3.43 µM and 5.93 µM
- GI50 (IGROV1 ovarian): 1.8 µM
- TGI (IGROV1 ovarian): 3.82 µM and 7.78 µM
- GI50 (K-562 leukemia): 2.78 µM
- TGI (K-562 leukemia): 10.1 µM and 8.85 µM
- GI50 (KM12 colon): 1.37 µM
- TGI (KM12 colon): 2.76 µM and 17.5 µM
- GI50 (LOX IMVI melanoma): 1.44 µM
- TGI (LOX IMVI melanoma): 2.89 µM and 6.79 µM
- TGI (M14 melanoma): 2.87 µM and 3.48 µM
- GI50 (MALME-3M melanoma): 1.5 µM
- TGI (MALME-3M melanoma): 2.99 µM and 3.08 µM
- TGI (MCF7 breast): 2.29 µM and 21.3 µM
- GI50 (MDA-MB-231 breast): 1.51 µM
- TGI (MDA-MB-231 breast): 3.04 µM and 3.24 µM
- GI50 (MDA-MB-435): 1.62 µM
- TGI (MDA-MB-435): 3.02 µM and 4.43 µM
- GI50 (MDA-N): 1.29 µM
- TGI (MDA-N): 2.67 µM and 9.02 µM
- GI50 (MOLT-4 leukemia): 3.88 µM
- TGI (MOLT-4 leukemia): 18 µM and 28.8 µM
- GI50 (NCI-H226 lung): 1.5 µM
- TGI (NCI-H226 lung): 2.97 µM
- GI50 (NCI-H23 lung): 2.79 µM
- TGI (NCI-H23 lung): 11.4 µM and 20.6 µM
- GI50 (NCI-H460 lung): 2.45 µM
- TGI (NCI-H460 lung): 10.3 µM and 9.87 µM
- GI50 (NCI-H522 lung): 1.11 µM
- TGI (NCI-H522 lung): 2.43 µM and 3.21 µM
- GI50 (NCI/ADR-RES ovarian): 1.87 µM
- TGI (NCI/ADR-RES ovarian): 4.94 µM and 25.5 µM
- GI50 (OVCAR-3 ovarian): 0.871 µM
- TGI (OVCAR-3 ovarian): 2.19 µM and 2.23 µM
- GI50 (OVCAR-4 ovarian): 1.79 µM
- TGI (OVCAR-4 ovarian): 3.88 µM and 8.61 µM
- GI50 (OVCAR-5 ovarian): 1.3 µM
- TGI (OVCAR-5 ovarian): 3.46 µM and 7.72 µM
- GI50 (OVCAR-8 ovarian): 2.1 µM
- TGI (OVCAR-8 ovarian): 4.93 µM and 18 µM
- GI50 (PC-3 prostate): 0.525 µM
- TGI (PC-3 prostate): 2.02 µM and 1.23 µM
- GI50 (RPMI-8226 leukemia): 3.15 µM
- TGI (RPMI-8226 leukemia): 18.2 µM and 6.29 µM
- TGI (RXF 393 renal): 1.46 µM and 1.7 µM
- GI50 (SF-268 CNS): 0.477 µM
- TGI (SF-268 CNS): 1.75 µM and 3.85 µM
- TGI (SF-295 CNS): 2.85 µM and 3.22 µM
- GI50 (SF-539 CNS): 1.62 µM
- TGI (SF-539 CNS): 3.09 µM and 4.5 µM
- GI50 (SK-MEL-2 melanoma): 1.26 µM
- TGI (SK-MEL-2 melanoma): 2.77 µM and 3.38 µM
- GI50 (SK-MEL-28 melanoma): 1.54 µM
- TGI (SK-MEL-28 melanoma): 3 µM and 11.1 µM
- GI50 (SK-MEL-5 melanoma): 1.1 µM
- TGI (SK-MEL-5 melanoma): 2.33 µM and 2.77 µM
- GI50 (SK-OV-3 ovarian): 1.48 µM
- TGI (SK-OV-3 ovarian): 3.36 µM and 5.24 µM
- GI50 (SN12C renal): 1.58 µM
- TGI (SN12C renal): 3.21 µM and 4.43 µM
- GI50 (SNB-19 CNS): 1.23 µM
- TGI (SNB-19 CNS): 2.53 µM and 2.83 µM
- GI50 (SNB-75 CNS): 0.698 µM
- TGI (SNB-75 CNS): 1.91 µM and 1.56 µM
- GI50 (SR leukemia): 6.78 µM
- TGI (SR leukemia): 44.9 µM and 15.3 µM
- GI50 (SW-620 colon): 3.07 µM
- TGI (SW-620 colon): 10.9 µM and 16.6 µM
- GI50 (T-47D breast): 1.47 µM
- TGI (T-47D breast): 3.14 µM and 4.88 µM
- GI50 (TK-10 renal): 0.25 µM
- TGI (TK-10 renal): 0.608 µM and 0.792 µM
- TGI (U251 CNS): 2.64 µM and 2.91 µM
- GI50 (UACC-257 melanoma): 1.49 µM
- TGI (UACC-257 melanoma): 3.11 µM and 9.63 µM
- GI50 (UACC-62 melanoma): 1.36 µM
- TGI (UACC-62 melanoma): 2.86 µM and 7.48 µM
- GI50 (UO-31 renal): 1.51 µM
- TGI (UO-31 renal): 2.85 µM and 7.06 µM
